Values of other authors, collected in patent US20040009207A1, “Medicinal beverage containing molecular oxygen” (priority 2000, published 2004).
Like-named read-outs stand apart in the source and are kept apart here.

Question: For `O=O` [O2, molecular oxygen], which “solubility of O2 in one litre water” value (0° C.) is on record?
Answer: Its value is 0.0491 L.

Question: What about the “solubility of O2 in one litre water” value (50° C.) of the same compound?
Answer: Its value is 0.0209 L.
